According to PubChem BioAssay AID248 (DTP/NCI, 2004):
Several values for one entry are separate records, joined by “and”; a condition that tells them apart may be missing. Equal values may be shown once. Toxic doses and inconclusive results are not listed. No stated cut-off is given here; in the data, active means T/C of 150% or more; inactive means T/C below 125%.

Tested on: L1210 leukemia ip in BDF1 mice, survival T/C
Assay: NCI In Vivo Anticancer Drug Screen. Data for tumor model L1210 Leukemia (intraperitoneal) in B6D2F1 (BDF1) mice
Settings: endpoint: mean survival time, higher = longer survival
Procedure, shortened: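 Transplantable tumor model; survival measured in treated vs vehicle control mice. Value = treated/control.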

[1] = dose: 100.0 mg/kg/injection, schedule: Q04DX003 (ip), vehicle: saline with Tween-80
[2] = dose: 200.0 mg/kg/injection, schedule: Q04DX003 (ip), vehicle: saline with Tween-80
[3] = dose: 400.0 mg/kg/injection, schedule: Q04DX003 (ip), vehicle: saline with Tween-80
[4] = dose: 100.0 mg/kg/injection, schedule: Q04DX002 (ip), vehicle: saline with Tween-80
[5] = dose: 200.0 mg/kg/injection, schedule: Q04DX002 (ip), vehicle: saline with Tween-80
[6] = dose: 400.0 mg/kg/injection, schedule: Q04DX002 (ip), vehicle: saline with Tween-80
[7] = dose: 100.0 mg/kg/injection, schedule: Q04DX003 (ip), vehicle: Klucel (hydroxypropylcellulose) (HPC)
[8] = dose: 200.0 mg/kg/injection, schedule: Q04DX003 (ip), vehicle: Klucel (hydroxypropylcellulose) (HPC)
[9] = dose: 400.0 mg/kg/injection, schedule: Q04DX003 (ip), vehicle: Klucel (hydroxypropylcellulose) (HPC)
[10] = dose: 100.0 mg/kg/injection, schedule: Q01DX009 (ip), vehicle: Klucel (hydroxypropylcellulose) (HPC)
[11] = dose: 200.0 mg/kg/injection, schedule: Q01DX009 (ip), vehicle: Klucel (hydroxypropylcellulose) (HPC)
[12] = dose: 400.0 mg/kg/injection, schedule: Q01DX009 (ip), vehicle: Klucel (hydroxypropylcellulose) (HPC)
[13] = dose: 50.0 mg/kg/injection, schedule: Q01DX001 (ip), vehicle: saline
[14] = dose: 100.0 mg/kg/injection, schedule: Q01DX001 (ip), vehicle: saline
[15] = dose: 200.0 mg/kg/injection, schedule: Q01DX001 (ip), vehicle: saline
[16] = dose: 400.0 mg/kg/injection, schedule: Q01DX001 (ip), vehicle: saline
[17] = dose: 100.0 mg/kg/injection, schedule: Q01DX001 (ip), vehicle: saline with Tween-80
[18] = dose: 100.0 mg/kg/injection, schedule: Q01DX009 (ip), vehicle: saline with Tween-80
[19] = dose: 200.0 mg/kg/injection, schedule: Q01DX001 (ip), vehicle: saline with Tween-80
[20] = dose: 200.0 mg/kg/injection, schedule: Q01DX009 (ip), vehicle: saline with Tween-80
[21] = dose: 400.0 mg/kg/injection, schedule: Q01DX001 (ip), vehicle: saline with Tween-80
[22] = dose: 400.0 mg/kg/injection, schedule: Q01DX009 (ip), vehicle: saline with Tween-80
[23] = dose: 100.0 mg/kg/injection, schedule: Q04DX002 (ip), vehicle: Klucel (hydroxypropylcellulose) (HPC)
[24] = dose: 200.0 mg/kg/injection, schedule: Q04DX002 (ip), vehicle: Klucel (hydroxypropylcellulose) (HPC)
[25] = dose: 400.0 mg/kg/injection, schedule: Q04DX002 (ip), vehicle: Klucel (hydroxypropylcellulose) (HPC)
[26] = dose: 200.0 mg/kg/injection, schedule: Q01DX001 (ip), vehicle: carboxymethylcellulose (CMC)
[27] = dose: 400.0 mg/kg/injection, schedule: Q01DX001 (ip), vehicle: carboxymethylcellulose (CMC)

Measured: T/C

COC(=O)Nc1cccc(OC(=O)NC(C)C)c1
inactive: [1] 95 % of control | [2] 93 % of control | [3] 93 % of control

CC(=O)Nc1ncccn1
inactive: [4] 98 % of control | [5] 98 % of control | [6] 98 % of control

OCCN=Cc1ccccc1O.OCCN=Cc1ccccc1O.[Ni]
inactive: dose: 75.0 mg/kg/injection, schedule: Q01DX001 (ip), vehicle: other 103 % of control | dose: 150.0 mg/kg/injection, schedule: Q01DX001 (ip), vehicle: other 106 % of control

c1coc(C2SCSCS2)c1
inactive: [7] 105 % of control | [8] 101 % of control | [9] 95 % of control

Nc1cccc2c1C(=O)c1c(c(O)c3ccccc3c1O)C2=O
inactive: [7] 100 % of control | [8] 96 % of control | [9] 96 % of control

O=[N+]([O-])c1cc(Cl)cc2c1nc(Cl)c1ccccc12
inactive: [10] 94 % of control | [7] 100 % of control | [11] 91 % of control | [8] 98 % of control | [12] 91 % of control | [9] 100 % of control

O=C1CCN2CCC(=O)c3c(Cl)ccc1c32
inactive: dose: 100.0 mg/kg/injection, schedule: Q01DX001 (ip), vehicle: other 100 % of control | dose: 200.0 mg/kg/injection, schedule: Q01DX001 (ip), vehicle: other 97 % of control | dose: 400.0 mg/kg/injection, schedule: Q01DX001 (ip), vehicle: other 100 % of control

O=C1C(c2c[nH]c3ccccc23)=Nc2ccc(Br)cc21
inactive: [13] 104 % of control | [14] 104 % of control | [15] 106 % of control

O=C(CC1CC2CCC1C2)Nc1ccccc1 (stereo unspecified)
inactive: [14] 96 % of control | [15] 111 % of control | [16] 100 % of control

CCCCCCCCCCCCCCCC(=O)N(CCC#N)c1ccc(N(CCC#N)C(=O)CCCCCCCCCCCCCCC)cc1
inactive: [17] 93 % of control | [18] 86 % of control | [1] 104 % of control | [19] 98 % of control | [20] 88 % of control | [2] 94 % of control | [21] 94 % of control | [22] 86 % of control | [3] 93 % of control

COCCCNCCCN1CC1
inactive: dose: 31.25 mg/kg/injection, schedule: Q04DX003 (ip), vehicle: saline 105 % of control | dose: 62.5 mg/kg/injection, schedule: Q01DX009 (ip), vehicle: saline 106 % of control | dose: 62.5 mg/kg/injection, schedule: Q04DX003 (ip), vehicle: saline 114 % of control

O=C(O)CCCSCCSCCCC(=O)O
inactive: dose: 100.0 mg/kg/injection, schedule: Q01DX009 (ip), vehicle: saline 97 % of control | dose: 200.0 mg/kg/injection, schedule: Q01DX009 (ip), vehicle: saline 103 % of control | dose: 400.0 mg/kg/injection, schedule: Q01DX009 (ip), vehicle: saline 86 % of control

CC(C)(C)C1=NN=C(C(C)(C)C)CSC1
inactive: [10] 95 % of control and 100 % of control | [23] 98 % of control and 103 % of control | [7] 101 % of control | [11] 101 % of control and 113 % of control | [24] 103 % of control and 105 % of control | [8] 97 % of control | [12] 101 % of control and 92 % of control | [25] 98 % of control and 105 % of control | [9] 95 % of control

CC1CN=C(c2ccc(NC(=O)Nc3ccc(NC(=O)c4ccc(C5=NCC(C)N5)cc4)cc3)cc2)N1 (stereo unspecified)
inactive: dose: 62.5 mg/kg/injection, schedule: Q01DX Z (oral), vehicle: water 97 % of control | dose: 125.0 mg/kg/injection, schedule: Q01DX Z (oral), vehicle: water 101 % of control | dose: 250.0 mg/kg/injection, schedule: Q01DX Z (oral), vehicle: water 100 % of control | dose: 500.0 mg/kg/injection, schedule: Q01DX Z (oral), vehicle: water 105 % of control

CN1N(C(O)C(Cl)(Cl)Cl)C12CCCCC2 (stereo unspecified)
inactive: [26] 101 % of control | [27] 98 % of control

CC(C)=CCC/C(C)=C\CCl
inactive: dose: 25.0 mg/kg/injection, schedule: Q01DX009 (ip), vehicle: saline with Tween-80 93 % of control | dose: 50.0 mg/kg/injection, schedule: Q01DX009 (ip), vehicle: saline with Tween-80 106 % of control | [18] 97 % of control and 101 % of control | [1] 104 % of control | [2] 93 % of control | [3] 90 % of control

Cc1cc2nc(CC(O)(C(F)(F)F)C(F)(F)F)oc2cc1C
inactive: [1] 96 % of control | [2] 102 % of control | [3] 101 % of control

CC(O)c1cccc(NC(=O)Nc2cccc(C(F)(F)F)c2)c1 (stereo unspecified)
inactive: dose: 100.0 mg/kg/injection, schedule: Q01DX001 (ip), vehicle: Klucel (hydroxypropylcellulose) (HPC) 104 % of control | [10] 100 % of control and 109 % of control | [23] 110 % of control and 111 % of control | [7] 99 % of control | dose: 200.0 mg/kg/injection, schedule: Q01DX001 (ip), vehicle: Klucel (hydroxypropylcellulose) (HPC) 98 % of control | [11] 107 % of control and 116 % of control | [24] 108 % of control | [8] 95 % of control | dose: 400.0 mg/kg/injection, schedule: Q01DX001 (ip), vehicle: Klucel (hydroxypropylcellulose) (HPC) 98 % of control | [12] 101 % of control and 89 % of control | [25] 112 % of control and 115 % of control | [9] 103 % of control

CCOC(=O)N(C)c1ccccc1
inactive: [10] 101 % of control | [7] 97 % of control | [11] 105 % of control | [8] 97 % of control | [12] 101 % of control | [9] 97 % of control

O=C(N/N=C/c1ccccc1Cl)c1ccccc1
inactive: [1] 96 % of control | [2] 101 % of control | [3] 88 % of control

Nn1c(=S)[nH]n2cnnc12
inactive: dose: 100.0 mg/kg/injection, schedule: Q01DX001 (ip), vehicle: carboxymethylcellulose (CMC) 98 % of control | [26] 106 % of control | [27] 95 % of control

COc1cc(NS(=O)(=O)c2ccccc2)ccc1C
inactive: [10] 92 % of control | [7] 97 % of control | [11] 91 % of control | [8] 90 % of control | [12] 91 % of control | [9] 87 % of control

CCOC(=O)c1nc(SCc2ccccc2)n(Cc2ccccc2)c1C(=O)OCC
inactive: [17] 109 % of control | [18] 104 % of control and 107 % of control | [4] 102 % of control and 108 % of control | [1] 91 % of control | [19] 101 % of control | [20] 102 % of control and 111 % of control | [5] 101 % of control and 87 % of control | [2] 107 % of control | [21] 95 % of control | [22] 101 % of control and 102 % of control | [6] 97 % of control and 104 % of control | [3] 101 % of control

Cc1c[n+](=O)c(C)cn1[O-]
inactive: [14] 97 % of control | [15] 100 % of control | [16] 103 % of control

CC(=O)Nc1c(Cl)cccc1Cl
inactive: [7] 95 % of control | [8] 108 % of control | [9] 110 % of control

COc1ccc2c(c1)c(CC(=O)O)c(C)n2C(=O)c1ccc(Cl)cc1
inactive: [13] 88 % of control | [14] 95 % of control | [15] 95 % of control | [16] 93 % of control

CC(=O)OCCN(C)C
inactive: dose: 75.0 mg/kg/injection, schedule: Q01DX009 (ip), vehicle: saline 104 % of control | dose: 100.0 mg/kg/injection, schedule: Q04DX002 (ip), vehicle: saline 100 % of control | dose: 150.0 mg/kg/injection, schedule: Q01DX009 (ip), vehicle: saline 101 % of control | dose: 200.0 mg/kg/injection, schedule: Q04DX002 (ip), vehicle: saline 110 % of control | dose: 300.0 mg/kg/injection, schedule: Q01DX009 (ip), vehicle: saline 101 % of control | dose: 400.0 mg/kg/injection, schedule: Q04DX002 (ip), vehicle: saline 113 % of control
